Experimental data: ChEMBL document CHEMBL1201862, “PubChem BioAssay data set” (2004)
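Exposure lasted 48 hours, with cells grown in 96-well plates and compounds tested at five concentrations. At the GI50, growth is halved.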 Active and inactive are the calls of the source. Cut-off read from the data, not from the text of the source: active = GI50 up to about 1.1 µM and inactive = higher.

How the values were obtained:
Assay in all cases: DTP human tumour cell line panel, 48 h
OVCAR-5 = system: OVCAR-5
HOP-92 = system: HOP-92
Malme-3M = system: Malme-3M
OVCAR-8 = system: OVCAR-8
M14 = system: M14
HOP-62 = system: HOP-62
NCI-H522 = system: NCI-H522
HCT-116 = system: HCT-116
K562 = system: K562
OVCAR-4 = system: OVCAR-4
NCI-H226 = system: NCI-H226
SF-539 = system: SF-539
UACC-257 = system: UACC-257
UACC-62 = system: UACC-62
CAKI-1 = system: CAKI-1
EKVX = system: EKVX
SN12C = system: SN12C
MDA-N = system: MDA-N
MDA-MB-231 = system: MDA-MB-231
Hs-578T = system: Hs-578T

Compound | GI50 (OVCAR-5) | GI50 (HOP-92) | GI50 (Malme-3M) | GI50 (OVCAR-8) | GI50 (M14) | GI50 (HOP-62) | GI50 (NCI-H522) | GI50 (HCT-116) | GI50 (K562) | GI50 (OVCAR-4) | GI50 (NCI-H226) | GI50 (SF-539) | GI50 (UACC-257) | GI50 (UACC-62) | GI50 (CAKI-1) | GI50 (EKVX) | GI50 (SN12C) | GI50 (MDA-N) | GI50 (MDA-MB-231) | GI50 (Hs-578T)
CN(C)C=[N+]=[N-] | > 100 µM (inactive) | > 100 µM (inactive) | > 100 µM (inactive) | > 100 µM (inactive) | > 100 µM (inactive) | > 100 µM (inactive) | 0.17 µM (active) | > 100 µM (inactive) | > 100 µM (inactive) | > 100 µM (inactive) | > 100 µM (inactive) | > 100 µM (inactive) | > 100 µM (inactive) | > 100 µM (inactive) | 43 µM (inactive) | > 100 µM (inactive) | > 100 µM (inactive) |  |  | 
CCCCCC(C[N+]1(C)CCOCC1)C(=O)/C=C/c1ccccc1 (stereo not given) | 17.4 µM (inactive) | 18.7 µM (inactive) | 16.9 µM (inactive) | 12.7 µM (inactive) | 11.1 µM (inactive) | 30 µM (inactive) | 3.03 µM (inactive) | 3.41 µM (inactive) | 3.34 µM (inactive) | 11.2 µM (inactive) | 10.8 µM (inactive) | 9.79 µM (inactive) | 13.4 µM (inactive) | 9.59 µM (inactive) | 16.9 µM (inactive) | 19.9 µM (inactive) | 13.5 µM (inactive) |  |  | 
COc1cccc(/C=C2\S/C(=N/Nc3nc(C)c(C)s3)NC2=O)c1O | > 100 µM (inactive) | > 100 µM (inactive) |  | 36.6 µM (inactive) | > 100 µM (inactive) | > 100 µM (inactive) |  | > 100 µM (inactive) |  | > 100 µM (inactive) | > 100 µM (inactive) | > 100 µM (inactive) | > 100 µM (inactive) | 69.5 µM (inactive) | > 100 µM (inactive) | 37 µM (inactive) | > 100 µM (inactive) | > 100 µM (inactive) | > 100 µM (inactive) | 
COc1cc2c3c(c1OC)/C(=N/OS(=O)(=O)c1ccc(C)cc1)CC3N(S(=O)(=O)c1ccc(C)cc1)CC2 (stereo not given) | > 100 µM (inactive) | > 100 µM (inactive) | > 100 µM (inactive) | 93.3 µM (inactive) | > 100 µM (inactive) | > 100 µM (inactive) | > 100 µM (inactive) | > 100 µM (inactive) | > 100 µM (inactive) | > 100 µM (inactive) | > 100 µM (inactive) | > 100 µM (inactive) | > 100 µM (inactive) | > 100 µM (inactive) | > 100 µM (inactive) | > 100 µM (inactive) | > 100 µM (inactive) |  |  | 
SC1=NC2=C(CSC/C2=C\c2ccccc2)C(c2ccccc2)N1 (stereo not given) | > 100 µM (inactive) | 37.6 µM (inactive) | 28.6 µM (inactive) | 42.2 µM (inactive) | 54.1 µM (inactive) | > 100 µM (inactive) | 59.4 µM (inactive) | 29.5 µM (inactive) | 30.3 µM (inactive) | > 100 µM (inactive) | 56.4 µM (inactive) | 76.6 µM (inactive) | 22.3 µM (inactive) | 27.9 µM (inactive) | > 100 µM (inactive) | 45.5 µM (inactive) | 38.1 µM (inactive) | 31.3 µM (inactive) | 45.1 µM (inactive) | 
Cc1nn(C(=O)Cc2ccccc2)c2c1C(c1ccc(Cl)cc1)SC(=N)N2 (stereo not given) |  |  | > 100 µM (inactive) | > 100 µM (inactive) | > 100 µM (inactive) | > 100 µM (inactive) | > 100 µM (inactive) | > 100 µM (inactive) | > 100 µM (inactive) |  |  | > 100 µM (inactive) | > 100 µM (inactive) | > 100 µM (inactive) | > 100 µM (inactive) | > 100 µM (inactive) | > 100 µM (inactive) |  | > 100 µM (inactive) | > 100 µM (inactive)
OC[C@H]1O[C@@H](n2cnc3cncnc32)[C@H](O)[C@@H]1O [NEBULARINE] | 1.4 µM (inactive) | 0.656 µM (active) | 2.03 µM (inactive) | 1.17 µM (inactive) |  | 2.45 µM (inactive) | 2.1 µM (inactive) | 0.321 µM (active) | 0.679 µM (active) | 1.12 µM (inactive) | 1.34 µM (inactive) | 1.43 µM (inactive) | 1.61 µM (inactive) | 1.16 µM (inactive) | 0.423 µM (active) | 0.605 µM (active) | 1.4 µM (inactive) |  |  | 
O=C(Cl)c1cc([N+](=O)[O-])cc([N+](=O)[O-])c1 | > 100 µM (inactive) | > 100 µM (inactive) | > 100 µM (inactive) |  | > 100 µM (inactive) | > 100 µM (inactive) | > 100 µM (inactive) | > 100 µM (inactive) | > 100 µM (inactive) | > 100 µM (inactive) | > 100 µM (inactive) | > 100 µM (inactive) | > 100 µM (inactive) | > 100 µM (inactive) | > 100 µM (inactive) | > 100 µM (inactive) |  |  |  | 
O=c1[nH]c(-c2ccc(Cl)cc2)cc2ccsc12 | 6.34 µM (inactive) | 10.6 µM (inactive) | 1.2 µM (inactive) | 8.41 µM (inactive) | 3.48 µM (inactive) | 8.07 µM (inactive) | 3.31 µM (inactive) | 3.3 µM (inactive) | 5.16 µM (inactive) | 23.3 µM (inactive) | > 100 µM (inactive) |  | 0.662 µM (active) | 8.22 µM (inactive) | 2.52 µM (inactive) | 8.38 µM (inactive) | 5.5 µM (inactive) | 1.58 µM (inactive) |  | 
CC(=O)OC1CCC2(C)C(CCC3C2CCC2(C)C(c4ccc(=O)oc4)C(OC(C)=O)CC32O)C1 (stereo not given) | 0.0397 µM (active) | 0.0195 µM (active) | 0.0125 µM (active) | 0.0171 µM (active) |  | 0.015 µM (active) | 0.016 µM (active) | 0.0157 µM (active) | 0.0161 µM (active) | 0.0125 µM (active) | 0.0356 µM (active) | 0.0125 µM (active) | 0.023 µM (active) | 0.0169 µM (active) | 0.0151 µM (active) | 0.0168 µM (active) | 0.0162 µM (active) |  |  | 
COc1ccccc1NC(=O)CC(=O)N1N=C(C)C(/N=N/c2ccc(S(N)(=O)=O)cc2)C1=O (stereo not given) | > 100 µM (inactive) | > 100 µM (inactive) | > 100 µM (inactive) | > 100 µM (inactive) | > 100 µM (inactive) | > 100 µM (inactive) | > 100 µM (inactive) | > 100 µM (inactive) |  | > 100 µM (inactive) | > 100 µM (inactive) | > 100 µM (inactive) | > 100 µM (inactive) | > 100 µM (inactive) | > 100 µM (inactive) | > 100 µM (inactive) | > 100 µM (inactive) |  |  | 
O=C1c2ccccc2C(=O)N1CC(O)COc1cccc2ccccc12 (stereo not given) | > 100 µM (inactive) |  | 61.8 µM (inactive) | > 100 µM (inactive) | > 100 µM (inactive) | > 100 µM (inactive) | > 100 µM (inactive) | > 100 µM (inactive) | > 100 µM (inactive) |  |  |  | > 100 µM (inactive) | > 100 µM (inactive) | 16.2 µM (inactive) | > 100 µM (inactive) |  | > 100 µM (inactive) | > 100 µM (inactive) | 
Nc1cc(N2CCOCC2)nc(=O)n1-c1ccccc1 | > 100 µM (inactive) | > 100 µM (inactive) |  | > 100 µM (inactive) | > 100 µM (inactive) | > 100 µM (inactive) |  | > 100 µM (inactive) | > 100 µM (inactive) |  | > 100 µM (inactive) | > 100 µM (inactive) | > 100 µM (inactive) | > 100 µM (inactive) | > 100 µM (inactive) | > 100 µM (inactive) | > 100 µM (inactive) | > 100 µM (inactive) |  | 
O=C(O)C1CCCCN1c1ccccc1[N+](=O)[O-] (stereo not given) | > 100 µM (inactive) | > 100 µM (inactive) | > 100 µM (inactive) | > 100 µM (inactive) | > 100 µM (inactive) | > 100 µM (inactive) | > 100 µM (inactive) | > 100 µM (inactive) | > 100 µM (inactive) | > 100 µM (inactive) | > 100 µM (inactive) | > 100 µM (inactive) | > 100 µM (inactive) | > 100 µM (inactive) | > 100 µM (inactive) | > 100 µM (inactive) | > 100 µM (inactive) |  |  | 
CCC(C(=O)O)c1ccc(OC)cc1 (stereo not given) | > 100 µM (inactive) | > 100 µM (inactive) | > 100 µM (inactive) |  | > 100 µM (inactive) | > 100 µM (inactive) | > 100 µM (inactive) | > 100 µM (inactive) | > 100 µM (inactive) | > 100 µM (inactive) | > 100 µM (inactive) | > 100 µM (inactive) | > 100 µM (inactive) | > 100 µM (inactive) | > 100 µM (inactive) | > 100 µM (inactive) | > 100 µM (inactive) |  |  | 
O=C1C=CC(=C(c2ccc(O)cc2)c2ccc(O)cc2)C=C1 [AURIN] | 18.2 µM (inactive) | 2.07 µM (inactive) | 12 µM (inactive) | 12.7 µM (inactive) | 13.3 µM (inactive) | 20.2 µM (inactive) | 10.1 µM (inactive) | 10.8 µM (inactive) | 2.94 µM (inactive) | 14.4 µM (inactive) | 17.4 µM (inactive) | 11.3 µM (inactive) | 9.68 µM (inactive) | 3.91 µM (inactive) | 15.2 µM (inactive) | 15.1 µM (inactive) | 8.47 µM (inactive) |  |  | 
C[C@H]1C(=O)O[C@@H]1[C@H]1COC(C)(C)O1 | > 100 µM (inactive) | > 100 µM (inactive) |  | > 100 µM (inactive) | > 100 µM (inactive) | > 100 µM (inactive) |  |  |  | > 100 µM (inactive) | > 100 µM (inactive) | > 100 µM (inactive) | > 100 µM (inactive) | > 100 µM (inactive) | > 100 µM (inactive) | > 100 µM (inactive) | > 100 µM (inactive) | > 100 µM (inactive) | > 100 µM (inactive) | 
